# Measurements: patent US20080176889A1, “9-anilinoacridine alkylating agents” (priority 2004, published 2008)
# Like-named read-outs stand apart in the source and are kept apart here.
# What was measured:
# [1] = tested on: human T-cell lymphoblastic leukemic lymphoma xenografts (CCRF-CEM); test: CCRF-CEM xenograft in nude mice; type: in vivo
# Procedure: (§1) Athymic nude mice bearing the nu/nu gene were used for human breast tumor MX-1 xenograft. Outbred Swiss-background mice were obtained from Charies River Breeding Laboratories. Male mice 8 weeks old or older weighing 22 g or more were used for most experiments. Drug was administrated via the tail vein by i.v. injection. Tumor volumes were assessed by measuring length×width×height (or width) by using caliper. Vehicle used was 20 μl DMSO in 180 μl saline. All animal studies were conducted in accordance with the guidelines of the National Institutes of Health Guide for the Care and Use of Animals and the protocol approved by the Memorial Sloan-Kettering Cancer Center's Institutional Animal Care and Use Committee.
# Table 6 summarizes data related to the therapeutic effects and toxicity of compound 37 in nude mice bearing human T-cell leukemic lymphoma CCRF-CEM xenografts. About 70% of average tumor sized was reduced at the dose of 2 mg/kg (Q3D×5).
# [2] = tested on: human lymphoblastic leukemic cells (CCRF-CEM); test: XTT-tetrazolium cytotoxicity assay, CCRF-CEM; type: cell-based; conditions: for IC50: Homo sapiens, 72 h
# Procedure: (§2) The effects of the compounds on cell growth were determined in all human tumor cells (i.e. T-cell acute lymphocytic leukemia CCRF-CEM), in a 72 h incubation, by XTT-tetrazolium assay, as described by Scudiero et al., Cancer Res. 1988, 48, 4827-4833. After the addition of phenazine methosulfate-XTT solution at 37° C. for 6 h, absorbance at 450 and 630 nm was detected on a microplate reader (EL 340; Bio-Tek Instruments Inc., Winooski, Vt.). Six to seven concentrations of each compound were used. The IC50 and dose-effect relationships of the compounds for antitumor activity were calculated by a median-effect plot (see, e.g., Chou et al. Adv. Enzyme Regul. 1984, 22, 27-55) using a computer program on an IBM-PC workstation (see, e.g., Chou et al. Dose-Effect Analysis with Microcomputers: Quantitation of ED50, LD50, Synergism, Antagonism, Low-Dose Risk, Receptor-Ligands Binding and Enzyme Kinetics; Biosoft: Cambridge, U.K., 1987).
# CCRF-CEM/Taxol = test: XTT cytotoxicity assay, taxol-resistant subline; type: cell-based, human
# Procedure: as §2
# (§3) Data summarizing the growth inhibition of human lymphoblastic leukemic cells (CCRF-CEM) and its drug-resistant sublines (resistant to vinblastine and taxol, CCRF-CEM/VBL and CCRF-CEM/taxol, respectively) by compound 37 is shown in Table 4.
# CCRF-CEM/VBL = test: XTT cytotoxicity assay, vinblastine-resistant subline; type: cell-based, human
# Procedure: as §2, §3
# Topo II = test: Topo II-mediated relaxation of pRYG-DNA; type: biochemical
# A549 = test: SRB cytotoxicity assay, solid tumor cells A549; type: cell-based, human; conditions: for IC50: Homo sapiens, A549, SRB
# HCT-116 = test: SRB cytotoxicity assay, solid tumor cells HCT-116; type: cell-based; conditions: Homo sapiens, HCT-116, 72 h, read-out: IC50 HCT-116
# [3] = tested on: human mammary carcinoma (MX-1) xenografts; test: MX-1 xenograft in nude mice; type: in vivo; conditions: for Average Body Weight: D11 (start of treatment, baseline weight)
# Procedure: as §1
# DNA = DNA binding observed in the Topo II relaxation comparison; conditions: seen in Topo II relaxation comparison
# [4] = number in bracket, ratio of IC50's
# [5] = 3 mg/kg Q4Dx5 i.v., column D17, marked (D15)
# [6] = 3 mg/kg Q4Dx5 i.v., column D20, marked (D19)
compound,measurement,setting,value
"OCc1cc(Nc2c3ccccc3nc3ccccc23)cc(OCCN(CCCl)CCCl)c1 [Compound 37, (3-(Acridin-9-ylamino)-5-{2-[bis(2-chloroethyl)amino]ethoxy}phenyl)methanol]",average tumor size reduced,[1]; 2 mg/kg (Q3D×5),About 70%
same,Average Body Weight,"[1]; 2 mg/kg Q3Dx5 i.v., D10 (start of treatment, baseline weight)",29.4 gm
same,Average Body Weight Change,"[1]; 2 mg/kg Q3Dx5 i.v., D13",−1.1 gm
same,Average Body Weight Change,"[1]; 2 mg/kg Q3Dx5 i.v., D16",−4.2 gm
same,Average Tumor Size (T/C),"[1]; 2 mg/kg Q3Dx5 i.v., D16",0.47
same,Average Body Weight Change,"[1]; 2 mg/kg Q3Dx5 i.v., D19",−3.3 gm
same,Average Tumor Size (T/C),"[1]; 2 mg/kg Q3Dx5 i.v., D19",0.34
same,Average Body Weight Change,"[1]; 2 mg/kg Q3Dx5 i.v., D22",−5.9 gm
same,Average Tumor Size (T/C),"[1]; 2 mg/kg Q3Dx5 i.v., D22",0.33
same,Average Body Weight Change,"[1]; 2 mg/kg Q3Dx5 i.v., D25",−6.8 gm
same,Average Tumor Size (T/C),"[1]; 2 mg/kg Q3Dx5 i.v., D25",0.34
same,Tumor free,"[1]; 2 mg/kg Q3Dx5 i.v., animals tumor free/total",0/3
same,Toxicity (death),"[1]; 2 mg/kg Q3Dx5 i.v., deaths/total",0/3
same,cytotoxicity relative to AHMA,[2],about 79 fold
same,IC50,[2],7 nM
same,IC50,[2]; read-out: IC50 CCRF-CEM,9.5 ± 2.5 nM
same,cross-resistance to taxol,CCRF-CEM/Taxol; CCRF-CEM/taxol vs CCRF-CEM,does not develop cross-resistance
same,IC50,"CCRF-CEM/Taxol; Homo sapiens, CCRF-CEM, 72 h, read-out: IC50 CCRF-CEM/Taxol",34 ± 13 nM
same,folds of resistance CCRF-CEM/Taxol vs CCRF-CEM parent cells,CCRF-CEM/Taxol; [4],1.3 ×
same,cross-resistance to vinblastine,CCRF-CEM/VBL; CCRF-CEM/VBL vs CCRF-CEM,does not develop cross-resistance
same,IC50,"CCRF-CEM/VBL; Homo sapiens, CCRF-CEM, 72 h, read-out: IC50 CCRF-CEM/VBL",7.5 nM
same,folds of resistance CCRF-CEM/VBL vs CCRF-CEM parent cells,CCRF-CEM/VBL; [4],0.53 ×
same,Topo II-mediated relaxation of pRYG-DNA,Topo II,inhibited DNA relaxation
same,IC50,"A549; 72 hours incubation, read-out: IC50 A549",5.6 ± 1.2 nM
same,IC50,"A549; incubation for 3 hours, washed, then incubated for a total of 72 hours (footnote b), read-out: IC50 A549 after washing",5 nM
same,alteration of potency when drug washed away,A549; washed away after incubation for 24 h,no alteration of the potency
same,IC50,HCT-116,5.5 ± 1 nM
same,Average Body Weight,[3]; 3 mg/kg Q4Dx5 i.v.,30.1 gm
same,Average Body Weight Change,"[3]; 3 mg/kg Q4Dx5 i.v., D14",−3.5 gm
same,Average Body Weight Change,"[3]; 3 mg/kg Q4Dx5 i.v., D23",−7.2 gm
same,Average Tumor Size (T/C),"[3]; 3 mg/kg Q4Dx5 i.v., D23",0.01
same,Tumor free,"[3]; 3 mg/kg Q4Dx5 i.v., animals tumor free/total (D27, 28)",2/3
same,Average Body Weight Change,[3]; [5],−3.3 gm
same,Average Tumor Size (T/C),[3]; [5],0.26
same,Average Body Weight Change,[3]; [6],−4.7 gm
same,Average Tumor Size (T/C),[3]; [6],0.03
same,Average Body Weight Change,"[3]; 3 mg/kg Q4Dx5 i.v., column D26, marked (D27)",−8.8 gm
same,Toxicity (death),"[3]; 3 mg/kg Q4Dx5 i.v., deaths/total (D27, 28, 29)",3/3
same,mice becoming tumor-free,"[3]; 1-2 mg/kg (Q3DX7) or 3 mg/kg (Q4D×5), intravenous injection, n=3",66.7%
same,Average Body Weight,[3]; 1-2 mg/kg Q3Dx7 i.v.,28.3 gm
same,Average Body Weight Change,"[3]; 1-2 mg/kg Q3Dx7 i.v., D14",+1.2 gm
same,Average Body Weight Change,"[3]; 1-2 mg/kg Q3Dx7 i.v., D17",−1.4 gm
same,Average Tumor Size (T/C),"[3]; 1-2 mg/kg Q3Dx7 i.v., D17",0.37
same,Average Body Weight Change,"[3]; 1-2 mg/kg Q3Dx7 i.v., D20",−3.0 gm
same,Average Tumor Size (T/C),"[3]; 1-2 mg/kg Q3Dx7 i.v., D20",0.17
same,Average Body Weight Change,"[3]; 1-2 mg/kg Q3Dx7 i.v., D23",−3.0 gm
same,Average Tumor Size (T/C),"[3]; 1-2 mg/kg Q3Dx7 i.v., D23",0.14
same,Average Body Weight Change,"[3]; 1-2 mg/kg Q3Dx7 i.v., D26",−3.9 gm
same,Tumor free,"[3]; 1-2 mg/kg Q3Dx7 i.v., animals tumor free/total (D32.32)",2/3
same,Toxicity (death),"[3]; 1-2 mg/kg Q3Dx7 i.v., deaths/total",0/3
same,binding to DNA,DNA,binds relatively tightly to DNA
